Results from patent US20100216732A1, “Azithromycin for the treatment of nodular acne” (priority 2006, published 2010).
Values joined by “and” are separate entries in the source; they are usually repeats but may differ in a detail not shown here. Equal entries are not always repeated.

Key:
[1] = test system: severe acne vulgaris with multiple nodules; assay: Open label clinical study of daily or pulsed oral azithromycin, nodule counts over 3 months; format: in vivo, human; details: for Nodules in the 2 non-responding patients two months after initiation of therapy: single patients
From the text: The invention is further illustrated by the following non-limiting examples. In the examples, patients included in the study were male or female subjects of any race, 16 years of age or older. presenting with 20-60 inflammatory lesions (papules or pustules), 20 to 150 non-inflammatory lesions (comedones or whiteheads), and 3 to 10 nodules. Patients having severe acne vulgaris with multiple nodules were enrolled in an open label clinical study in which each patient received a daily oral dose of 250 mg of azithromycin for the 3-month duration of the study. Lesion counts were recorded at baseline before the initiation of treatment and at 1, 2, and 3 months following initiation of treatment. […] These 2 patients had 9 and 8 nodules, respectively, at baseline and 8 and 13 nodules, respectively two months after initiation of therapy. Of the favorable responders, two patients who began the study with 3 nodules had 2 nodules at the end of the three month study. The remaining 14 patients who responded favorably to treatment had on average 6.7 nodules at baseline (range 4 to 10 nodules) and improved to having no nodules (10 patients) or at most 1 nodule (4 patients) by the end of the three month course of treatment. Another set of patients with severe acne vulgaris was enrolled in an open label clinical study as in Example 1, except that each patient received a daily oral dose of 250 mg of azithromycin for one week followed by one week of no azithromycin, which cycle was repeated for the 3-month duration of the study. […] These 2 patients had 6 and 10 nodules, respectively, at baseline and 5 and 8 nodules, respectively, two months after initiation of therapy. Three patients had partial clearing of nodules during the study. These patients had 9, 10, and 6 nodules, respectively, at baseline and 3, 4, and 2 nodules, respectively, at the end of the study. Another set of patients with severe acne vulgaris was enrolled in an open label clinical study as in Example 1, except that each patient received a daily oral dose of 125 mg of azithromycin for the 3-month duration of the study. […] These 2 patients had 8 and 3 nodules, respectively, at baseline and 10 and 4 nodules, respectively two months after initiation of therapy. The 18 patients who responded favorably to treatment had on average 5.1 nodules at baseline (range 3 to 8 nodules) and improved to having no nodules (13 patients) or at most 1 nodule (5 patients) at the end of the three month course of treatment.

[2] = test system: lesions of inflammatory acne; details: pulse-dose regimen, three-times-weekly, versus daily doxycycline, erythromycin, minocycline, tetracycline; cited from earlier work
[3] = test system: moderate to severe inflammatory acne; details: 500 mg for three consecutive days in a 10 day cycle, with topical erythromycin; cited from earlier work
[4] = test system: nodular cystic acne; details: Pigatto study, in words; cited from earlier work
[5] = Example 1, 250 mg/day oral, 3 months, 18 patients
[6] = Example 2, 250 mg/day every other week, 3 months, 18 patients
[7] = Example 3, 125 mg/day oral, 3 months, 20 patients
[8] = Total Examples 1 to 3, 56 patients

In the case of CC[C@H]1OC(=O)[C@H](C)[C@@H](O[C@H]2C[C@@](C)(OC)[C@@H](O)[C@H](C)O2)[C@H](C)[C@@H](O[C@@H]2O[C@H](C)C[C@H](N(C)C)[C@H]2O)[C@](C)(O)C[C@@H](C)CN(C)[C@H](C)[C@@H](O)[C@]1(C)O [azithromycin, 9-deoxo-9a-aza-9a-methyl-9a-homoerythromycin A], the “Number of patients that did not respond favorably to treatment” value ([1]; Example 1, 250 mg daily oral, of 18 patients in study longer than one month) is reported as 2, the “Number of patients improved to at most 1 nodule by end of three month treatment” value ([1]; Example 1, 250 mg daily, of remaining 14 favorable responders, average 6.7 nodules at baseline) is reported as 4 patients and the “Number of patients improved to having no nodules by end of three month treatment” value ([1]; Example 1, 250 mg daily, of remaining 14 favorable responders, average 6.7 nodules at baseline (range 4 to 10)) is reported as 10 patients. For the same compound, the “Nodules in the 2 non-responding patients two months after initiation of therapy” value ([1]; Example 1, 250 mg daily, 9 and 8 nodules at baseline, respectively) was 8 nodules and 13 nodules, the “Nodules at the end of the three month study in two favorable responders” value ([1]; Example 1, 250 mg daily, two patients who began with 3 nodules) was 2 nodules and the “Number of good responders” value [1, 5] was 16. The “Percentage of good responders” value [1, 5] was 88.9%, the “Percentage of nodules cleared in good responders” value (from here on “Percentage … in good responders”) ([1]; Example 1, 250 mg/day, 16 good responders) was 92.0% and the “Nodules in good responders after treatment” value (from here on “Nodules in good responders”) ([1]; Example 1, 250 mg/day, 16 good responders, nodules before 100) was 8. The “Percentage of nodules cleared” value ([1]; Example 1, 250 mg/day, all 18 patients) was 75.2%, the “Nodules remaining after treatment” value ([1]; Example 1, 250 mg/day, all 18 patients, number of nodules before 117) was 29 and the “Number of patients improved to at most 1 nodule at end of three month treatment” value ([1]; Example 2, 250 mg daily every other week, of remaining 13 favorable responders, average 6.2 nodules at baseline) was 3 patients. For the same compound, the “Number of patients improved to having no nodules at end of three month treatment” value ([1]; Example 2, 250 mg daily every other week, of remaining 13 favorable responders, average 6.2 nodules at baseline (range 3 to 10)) was 10 patients, the “Nodules in the 2 non-responding patients two months after initiation of therapy” value ([1]; Example 2, 250 mg daily every other week, 6 and 10 nodules at baseline, respectively) was 5 nodules and 8 nodules and the “Nodules at the end of the study in three patients with partial clearing” value ([1]; Example 2, 250 mg daily every other week, single patients, 9, 10 and 6 nodules at baseline, respectively) was 3 nodules and 4 nodules and 2 nodules. For the same compound, the “Number of patients that did not respond favorably to treatment” value ([1]; Example 2, 250 mg daily one week on, one week off, of 18 patients) was 2, the “Number of good responders” value [1, 6] was 16 and the “Percentage of good responders” value [1, 6] was 88.9%. The “Percentage … in good responders” value ([1]; Example 2, 250 mg/day every other week, 16 good responders) was 87.9%, the “Nodules in good responders” value ([1]; Example 2, 250 mg/day every other week, 16 good responders, nodules before 99) was 12 and the “Percentage of nodules cleared” value ([1]; Example 2, 250 mg/day every other week, all 18 patients) was 78.3%. For the same compound, the “Nodules remaining after treatment” value ([1]; Example 2, 250 mg/day every other week, all 18 patients, number of nodules before 115) was 25, the “Number of patients that did not respond favorably to treatment” value ([1]; Example 3, 125 mg daily oral, of 20 patients) was 2 and the “Number of patients improved to at most 1 nodule at end of three month treatment” value ([1]; Example 3, 125 mg daily, of 18 favorable responders, average 5.1 nodules at baseline) was 5 patients. For the same compound, the “Number of patients improved to having no nodules at end of three month treatment” value ([1]; Example 3, 125 mg daily, of 18 favorable responders, average 5.1 nodules at baseline (range 3 to 8)) was 13 patients, the “Nodules in the 2 non-responding patients two months after initiation of therapy” value ([1]; Example 3, 125 mg daily, 8 and 3 nodules at baseline, respectively) was 10 nodules and 4 nodules and the “Number of good responders” value [1, 7] was 18. The “Percentage of good responders” value [1, 7] was 90.0%, the “Percentage … in good responders” value ([1]; Example 3, 125 mg/day, 18 good responders) was 94.6% and the “Nodules in good responders” value ([1]; Example 3, 125 mg/day, 18 good responders, nodules before 92) was 5. The “Percentage of nodules cleared” value ([1]; Example 3, 125 mg/day, all 20 patients) was 81.6%, the “Nodules remaining after treatment” value ([1]; Example 3, 125 mg/day, all 20 patients, number of nodules before 103) was 19 and the “Nodules in good responders” value ([1]; Total Examples 1 to 3, 50 good responders, nodules before 291) was 25. For the same compound, the “Number of good responders” value [1, 8] was 50, the “Percentage of nodules cleared” value [1, 8] was 78.2% and the “Nodules remaining after treatment” value ([1]; Total Examples 1 to 3, 56 patients, number of nodules before 335) was 73. For the same compound, the “Efficacy in treating nodular acne vulgaris, including severe nodular acne vulgaris” value ([1]; systemic administration, Examples 1 to 3) was “highly efficacious”, the “Efficacy in treating lesions of inflammatory acne” value [2] was “as effective as other antibiotics tested” and the “Efficacy in treating moderate to severe acne vulgaris” value [3] was “effective”.
In the case of CC1=C(/C=C/C(C)=C/C=C/C(C)=C\C(=O)O)C(C)(C)CCC1 [isotretinoin], the “Efficacy in treating nodular cystic acne” value [4] is listed as “highly efficacious”.
